How the values were obtained:
[1] = system: Endothelial cells (HUVECs); assay: Endothelial cell (HUVEC) proliferation assay, 3H thymidine incorporation, compound without added growth factor; assay type: cell-based, human
Method in brief: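 HUVECs grown 24 h in EGM-2, starved 1-2 h in RPMI-1% BSA, then exposed 24 h at 37 degrees C to compounds at 1 to 12 microgram/ml without added growth factors. Proliferation read as 3H thymidine incorporation over 4 to 5 h; human iliac artery endothelial cells also used similarly.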

[2] = system: HGF/SF induced proliferation of HUVEC; assay: Endothelial cell (HUVEC) proliferation assay in the presence of exogenously-added HGF/SF; assay type: cell-based, human
Method in brief: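 Serum-starved HUVECs were treated 24 h at 37°C with compounds at final 1 to 12 microgram/ml in RPMI-1% BSA. Proliferation was read as ³H-thymidine incorporation over 4 to 5 h, counted after NaOH lysis.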

[3] = system: growth of blood vessels from subcutaneous tissue into Matrigel; assay: In vivo blood vessel ingrowth assay (Matrigel); conditions: mice, Matrigel mixed with compound injected subcutaneously, 10 days
Experimental: Angiogenesis was assayed as growth of blood vessels from subcutaneous tissue into a solid gel of basement membrane containing the test compound. Matrigel in liquid form (0.5 ml) was mixed with a compound of the invention, or basic fibroblast growth factor as a control, and injected into the abdominal subcutaneous tissue of mice as previously described (Kibbey, M. C., Grant, D. S. Auerbach, R. and Kleinman, H. K. [1992] Role of the SIKVAV site of laminin in promotion of angiogenesis and tumor growth: an in vivo Matrigel model. J. Natl. Can. Inst. 84, 1633-38). After 10 days, mice were sacrificed and the Matrigel plugs were removed, fixed, sectioned, stained and examined for ingrowth of blood vessels.

DU145 cells = assay: Clonogenic assay; assay type: cell-based; conditions: clonogenic assay over 7 days
Experimental: The effect of (4-(2-chloro-6-fluorobenzyl)-3,5-dimethyl-1H-pyrazole-1-yl)(3-(2,6-dichlorophenyl)-5-methylisoxazol-4-yl)methanone (FIG. 7) and 1-(4-chloro-3-methylphenyl)-3-(2,6-dichlorophenyl)-prop-2-en-1-one were evaluated in a clonogenic assay over 7 days.

[4] = system: VEGF-mediated increase in endothelial cell proliferation; assay: Endothelial cell proliferation assay in the presence of VEGF; assay type: cell-based; conditions: 1.5 micromolar
Experimental: (§1) Cell proliferation assays Endothelial cells (HUVECs) were seeded in 48 well plates at a density of 10,000 to 20,000 cells per well in the normal growth medium (EGM-2-Clonetics) containing 2% fetal bovine serum, FGF, VEGF, IGF, ascorbic acid, EGF, GA, heparin and hydrocortisone. The cells were grown normally in the growth medium for 24 hr at 37 degrees C. and 5% CO2. The cells were then rinsed with RPMI-1% BSA and starved for 1-2 hrs. The stock solutions of all the compounds were made at a concentration of 10 mg/ml in DMSO and diluted in RPMI-1% BSA at a final concentrations of 1 to 12 microgram/ml. The cells were then washed and treated with the compounds and incubated for another 24 hr at 37 degrees C. Then ^3H thymidine (0.5 microgram/ml in RPMI-BSA) was added to the cells and incubated at 37 degrees C. for 4 to 5 hours. The unincorporated thymidine was removed by washing the cells four times with 1× PBS. Then the cells were lysed with 0.5M NaOH for 30 min and the radioactivity counted in the beta counter.
(§2) In endothelial cell proliferation assays as described above, the effect of the compound 1-(4-chloro-3-methylphenyl)-3-(2,6-dichlorophenyl)-prop-2-en-1-one was evaluated in the presence of HGF/SF, VEGF or FGF for its effects on antagonizing the growth factor-induced stimulation of endothelial cell proliferation.

[5] = system: FGF-mediated increase in endothelial cell proliferation; assay: Endothelial cell proliferation assay in the presence of FGF; assay type: cell-based; conditions: 1.5 micromolar
Experimental: as §1, §2

[6] = system: human endometrial cancer cells; assay: Effect on growth of tumor cells; assay type: cell-based; conditions: 40 micrograms/ml
Experimental: Effect on growth of tumor cells. The activity of the compounds herein to promote or inhibit the growth of tumor cells was evaluated using human endometrial cancer cells.

SMILES | Activity at 1 ug/ml concentration Without HGF/SF (result in words) ([1]; 1 ug/ml, without HGF/SF) | effect on HGF/SF-mediated increase in endothelial cell proliferation ([2]; 1.5 micromolar) | Inhibition at 6-12 micrograms/ml With ([2]; 6-12 micrograms/ml, with HGF/SF, inhibition of endothelial cell proliferation) | ingrowth of blood vessels into Matrigel plug [3] | DU145 cell growth (DU145 cells) | effect on VEGF-mediated increase in endothelial cell proliferation [4] | effect on FGF-mediated increase in endothelial cell proliferation [5] | effect on HUVEC proliferation, substance alone (FIG. 5) [1] | blockage of HGF/SF induced proliferation of HUVEC ([2]; 12 micrograms/ml) | effect on HGF/SF-mediated stimulation of HUVEC proliferation (FIG. 5) ([2]; combination of HGF/SF and the compound) | inhibition at 40 µg/mL [6]
Cc1cc(C(=O)C=Cc2c(Cl)cccc2Cl)ccc1Cl [1-(4-chloro-3-methylphenyl)-3-(2,6-dichlorophenyl)-prop-2-en-1-one] | No effect at 1 ug/ml | suppressed | 40-80% inhibition | nearly complete inhibition of blood vessel ingrowth | dose responsive inhibition | suppressed | suppressed | – | – | – | –
Cc1nn(C(=O)c2c(-c3c(Cl)cccc3Cl)noc2C)c(C)c1Cc1c(Cl)cccc1Cl [[4-(2,6-dichlorobenzyl)-3,5-dimethyl-1H-pyrazol-1-yl][3-(2,6-dichlorophenyl)-5-methylisoxazol-4-yl]methanone] | – | – | – | – | – | – | – | no effect | 40-60% | significant suppression | 40 to 50%

Reference: US6855728B2, “Small-molecule modulators of hepatocyte growth factor / scatter factor activities” (North Shore-Long Island Jewish Health System, priority 2001, dated 2005)
